This passage reports GI50 and TGI results from PubChem BioAssay (NCI).

What all share (experiment): DTP human tumour cell line panel, 48 h
The test system of assay [1] is CCRF-CEM leukemia.
Assay [2] relates to IGROV1 ovarian.
Assay [3] concerns KM12 colon.
In assay [4] the test system is M14 melanoma.
In assay [5] the test system is NCI-H23 lung.
In assay [6] the test system is NCI-H460 lung.
Assay [7] deals with OVCAR-8 ovarian.
The test system of assay [8] is RPMI-8226 leukemia.
Assay [9] deals with RXF 393 renal.
The subject of assay [10] is SF-268 CNS.

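Grown in 96-well plates, cells were treated for 48 hours with each compound at five concentrations. Insufficient inhibition: endpoint recorded as highest concentration tested. Here, GI50 denotes the concentration required for 50% inhibition of growth. At the TGI there is no net growth.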

For `O=C1C(Cl)=C(Nc2cccc(O)c2)C(=O)N1c1cccc(Cl)c1Cl`, the GI50 in assay [1] was 8.38 µM; in [2], 5.96 µM; in assay [3] it was 24.6 µM; in assay [4], 14.8 µM; in assay [5], 14.4 µM; in [6], 14.8 µM. The GI50 was 15.1 µM in [7], 1.56 µM in assay [8], 18.4 µM in assay [9] and 11.7 µM in [10]. Besides, the TGI was determined as 50.4 µM in [1]; 23.4 µM in [2]; 86.8 µM in assay [3]; 31.7 µM in assay [4]; 34.6 µM in assay [5]; 51.5 µM in [6]. Moreover, the TGI in assay [7] stood at 30.4 µM; in [8], 16.2 µM; in assay [9], 42.4 µM; in assay [10], 28.8 µM.
`COc1ccc(-c2nocc2-c2cc(OC)c(OC)c(OC)c2)cc1`: the GI50 in [1] is 0.189 µM; in assay [2], 0.346 µM; in assay [3], 0.0386 µM; in assay [4] it was 0.054 µM; in [5], 0.445 µM; in assay [6], 0.048 µM. For the same compound, the GI50 is 0.228 µM in assay [7], 0.348 µM in [8], 0.14 µM in assay [9] and 0.683 µM in assay [10]. Besides, the TGI is over 100 µM in [1]; over 100 µM in assay [2]; 14.1 µM in [3]; 5.82 µM in [4]; over 86.5 µM in assay [5]; 15.5 µM in [6]. The TGI in assay [7] was over 100 µM; in assay [8], 30.9 µM; in assay [9], 0.797 µM; in [10], over 85.9 µM.
On to `Cc1ccc(NC(=O)c2nc(S(C)=O)oc2-c2ccc(F)cc2)cc1Nc1nccc(-c2cccnc2)n1` (stereo not given), for which the GI50 in assay [1] is 1.58 µM; in assay [2] it was 1.89 µM; in [3], 2.58 µM; in [4], 1.99 µM; in [5], 1.83 µM; in assay [6] it was 2.09 µM. Further, the GI50 is 2.23 µM in [7], 2.43 µM in [8], 1.86 µM in assay [9] and 2.15 µM in assay [10]. For the same compound, the TGI was found to be 6.83 µM in [1]; 3.85 µM in assay [2]; 7.14 µM in [3]; 4.34 µM in [4]; 4.49 µM in [5]; 4.06 µM in assay [6]. Moreover, the concentration for total growth inhibition (TGI) was found to be 4.64 µM in [7], 6.5 µM in assay [8], 3.46 µM in [9] and 4.61 µM in assay [10].
Take `COc1ccc(C(=O)O)c(Cc2ccc3ccccc3c2)c1`: the TGI in [1], in assay [2], in [3], in assay [4], in assay [5] and in assay [6] was over 100 µM throughout. In addition, the TGI in assay [7], in assay [8], in assay [9] and in [10] was over 100 µM in each case.
Consider `CC(=O)c1ccc(NCN2C(=O)c3ccccc3C2=O)cc1`, for which the TGI in [1], in assay [2], in assay [3], in assay [4], in [5] and in assay [6] was over 100 µM in each case. Also, the TGI in assay [7], in assay [8], in assay [9] and in assay [10] was over 100 µM in each case.
For `Cc1ccccc1/C=C1\CN(C(=O)OC(C)(C)C)C/C(=C\c2ccccc2C)C1=O`, the GI50 was 2.9 µM in assay [1]; 2.26 µM in assay [2]; 2.03 µM in assay [3]; 2.97 µM in assay [4]; 2.2 µM in assay [5]; 2.12 µM in [6]. Besides, the GI50 in assay [7] is 3.49 µM; in assay [8], 1.66 µM; in [9], 1.66 µM; in [10], 2.95 µM. The TGI in assay [1] is 12.6 µM; in assay [2], 6.26 µM; in assay [3] it was 4.68 µM; in [4] it was 13.5 µM; in [5], 4.99 µM; in [6], 4.27 µM. In addition, the TGI in [7] is over 100 µM; in [8] it was 5.37 µM; in assay [9], 3.21 µM; in assay [10], 10.6 µM.
For `O=C(CN1CCN(c2ccc(Cl)cc2)CC1)N1CCN(c2nnc(-c3ccccc3)c(-c3ccccc3)n2)CC1`, the GI50 is 21.6 µM in [1]; 42.9 µM in [2]; 4.04 µM in assay [3]; over 100 µM in assay [4]; 4 µM in assay [5]; 4.97 µM in assay [6]. In addition, the GI50 in assay [7] is 52.4 µM; in assay [8] it was 2.77 µM; in [9], 15 µM; in [10], over 100 µM. For the same compound, the TGI in [1], in assay [2], in assay [3], in [4], in assay [5] and in [6] was over 100 µM each time. Besides, the TGI in [7], in assay [8], in [9] and in assay [10] was over 100 µM in each case.
In the case of `C/C(=N\NC(=O)c1ccncc1)c1ccc(O)cc1O`, the GI50 in assay [1] was 2.08 µM; in [2], 4.89 µM; in assay [3] it was 8.59 µM; in assay [4], 6.44 µM; in assay [5], 11.4 µM; in [6], 5 µM. The GI50 in assay [7] is 2.93 µM; in assay [8], 31.5 µM; in assay [9], 12.2 µM; in [10] it was 2.19 µM. Besides, the concentration for total growth inhibition (TGI) in [1] was over 100 µM; in assay [2], 63.4 µM; in assay [3], over 100 µM; in [4], over 100 µM; in [5] it was over 100 µM; in assay [6] it was over 100 µM. Moreover, the TGI in assay [7], in assay [8], in [9] and in [10] was over 100 µM in each case.

Broadly, the GI50 is the concentration giving 50% growth inhibition. Broadly, the TGI is the concentration giving total growth inhibition. High values mean less potent growth arrest, low ones more potent growth arrest.
